Biological target: T1, ΔF508-CFTR (Homo sapiens, UniProt P13569, DEL508-508)
Assay: Other protein tyrosine kinase inhibitors, activation of ΔF508-CFTR
Type: cell-based
Set-up: expressed in transfected cells; host or cells: NIH/3T3 cells, stably transfected (NIH/3T3-ΔF508, gift of Dr. Richard Mulligan)
Conditions: not given

T1 sequence (P13569 with tags, fused parts or gaps DEL508-508): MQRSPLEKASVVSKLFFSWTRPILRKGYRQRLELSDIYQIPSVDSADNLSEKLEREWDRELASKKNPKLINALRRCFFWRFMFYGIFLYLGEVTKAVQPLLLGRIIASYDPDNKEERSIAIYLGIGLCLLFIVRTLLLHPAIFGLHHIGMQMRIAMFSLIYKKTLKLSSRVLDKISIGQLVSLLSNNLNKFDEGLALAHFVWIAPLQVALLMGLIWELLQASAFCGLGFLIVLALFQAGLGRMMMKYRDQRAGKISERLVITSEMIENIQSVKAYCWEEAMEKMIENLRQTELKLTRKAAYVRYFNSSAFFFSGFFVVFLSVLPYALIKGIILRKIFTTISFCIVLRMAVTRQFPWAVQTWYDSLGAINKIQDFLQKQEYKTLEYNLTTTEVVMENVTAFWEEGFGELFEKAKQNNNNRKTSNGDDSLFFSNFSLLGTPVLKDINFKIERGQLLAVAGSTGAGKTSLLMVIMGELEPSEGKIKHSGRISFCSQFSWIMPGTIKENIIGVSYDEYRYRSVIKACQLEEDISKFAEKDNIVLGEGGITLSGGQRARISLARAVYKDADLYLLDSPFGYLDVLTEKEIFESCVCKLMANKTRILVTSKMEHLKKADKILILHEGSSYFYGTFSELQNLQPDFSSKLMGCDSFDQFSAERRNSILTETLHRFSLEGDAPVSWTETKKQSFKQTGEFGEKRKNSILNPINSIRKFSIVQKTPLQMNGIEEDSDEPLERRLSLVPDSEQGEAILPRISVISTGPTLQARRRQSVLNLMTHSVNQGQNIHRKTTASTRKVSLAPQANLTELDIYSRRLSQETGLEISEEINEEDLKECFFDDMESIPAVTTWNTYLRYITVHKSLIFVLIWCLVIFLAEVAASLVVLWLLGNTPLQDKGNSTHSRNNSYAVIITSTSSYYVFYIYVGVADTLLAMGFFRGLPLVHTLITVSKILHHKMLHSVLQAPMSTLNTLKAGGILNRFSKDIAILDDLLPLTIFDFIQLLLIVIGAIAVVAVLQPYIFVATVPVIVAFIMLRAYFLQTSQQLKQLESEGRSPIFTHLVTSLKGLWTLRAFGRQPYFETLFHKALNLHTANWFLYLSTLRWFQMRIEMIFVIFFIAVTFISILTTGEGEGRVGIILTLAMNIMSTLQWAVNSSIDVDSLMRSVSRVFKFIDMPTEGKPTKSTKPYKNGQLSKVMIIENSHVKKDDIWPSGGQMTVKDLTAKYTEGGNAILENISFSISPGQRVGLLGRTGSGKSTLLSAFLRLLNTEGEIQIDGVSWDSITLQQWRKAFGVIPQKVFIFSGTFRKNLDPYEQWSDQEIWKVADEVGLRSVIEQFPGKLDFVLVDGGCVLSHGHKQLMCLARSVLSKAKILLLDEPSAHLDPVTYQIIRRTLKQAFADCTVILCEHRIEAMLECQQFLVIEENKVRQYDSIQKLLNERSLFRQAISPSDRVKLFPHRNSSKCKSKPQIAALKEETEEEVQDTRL

Row | Compound | ΔF508-CFTR stimulation activity among protein tyrosine kinase inhibitors
1 | Nc1ccc(-c2cc(=O)c3cc(O)ccc3o2)cc1 [aminogenistein, 4'-amino-6-hydroxyflavone] | is the only protein tyrosine kinase inhibitor that has such an effect

Same assay, conditions: methodology of Example 1

Row | Compound | activation of ΔF508-CFTR
2 | CC(=O)OCOC(c1ccc2ccccc2c1)P(=O)(OCOC(C)=O)OCOC(C)=O (stereo not drawn) [HNMP-A (AM)^3] | failed to activate ΔF508-CFTR
3 | Cc1ccc(-c2nn(C(C)(C)C)c3ncnc(N)c23)cc1 [PP1] | failed to activate ΔF508-CFTR
4 | CCOc1cc(C=C(C#N)C(N)=O)cc(CSc2ccccc2)c1O [ST638] | failed to activate ΔF508-CFTR
5 | O=c1c(-c2ccc(O)cc2)coc2cc(O)ccc12 [daidzein] | failed to activate ΔF508-CFTR
6 | COc1c(C=O)c(O)cc2c1C(=O)c1ccccc1C2=O [damnacanthal] | failed to activate ΔF508-CFTR
7 | Cc1cc(O)c2c(c1)C(=O)c1cc(O)cc(O)c1C2=O [emodin] | failed to activate ΔF508-CFTR
8 | COC(=O)/C=C/c1cc(O)ccc1O [erbstatin analogue] | failed to activate ΔF508-CFTR
9 | COC1=C2C[C@@H](C)C[C@H](OC)[C@H](O)[C@@H](C)/C=C(\C)[C@H](OC(N)=O)[C@@H](OC)/C=C\C=C(/C)C(=O)NC(=CC1=O)C2=O [geldanamycin] | failed to activate ΔF508-CFTR
10 | COC1C=CC=C(C)C(=O)NC2=CC(=O)C=C(C2=O)C(OC)C(C)CC(OC)C(OC)C(C)C=C(C)C1OC(N)=O (stereo not drawn) [herbimycin A] | failed to activate ΔF508-CFTR
11 | O=C(O)c1cc(N(Cc2ccccc2O)Cc2cc(O)ccc2O)ccc1O [lavendustin A] | failed to activate ΔF508-CFTR
12 | O=C(O)c1cc(N(Cc2ccccc2O)Cc2ccccc2O)ccc1O [lavendustin B] | failed to activate ΔF508-CFTR
13 | COC(=O)c1cc(NCc2cc(O)ccc2O)ccc1O [lavendustin C methyl ester] | failed to activate ΔF508-CFTR
14 | Oc1cc(O)cc(/C=C/c2ccc(O)c(O)c2)c1 [piceatannol] | failed to activate ΔF508-CFTR

Biological target: T1, ΔF508-CFTR
Assay: CFTR gating in excised inside-out patches, NIH/3T3-ΔF508 cells
Conditions: ATP without genistein; stated for both wt- and ΔF508-CFTR
Method: (§1) FIGS. 9A and B are recordings of the effects of genistein on CFTR gating in excised inside-out patches from NIH/3T3-CFTR or NIH/3T3-ΔF508 cells. CFTR channels were activated by 10 μM forskolin +20 nM calyculin A before excision into an inside-out configuration. Presence of calyculin A helps to slow channel dephosphorylation. (A): continuous 14.5 minute recording of a patch containing wt-CFTR. Expanded traces are 22 seconds in length. ATP (500 μM) with or without 20 μM genistein was present as indicated. (B): 2 traces of 44 seconds in length of an excised inside-out patch with CFTR-ΔF508.
(§2) Electrophysiology: CFTR channel currents were recorded at room temperature (~22° C.) with a patch-clamp amplifier (EPC-9, Heka Electronic), filtered at 100 Hz with a built-in three-pole Bessel filter, and stored on videotapes. Data were subsequently refiltered at 25 Hz with an eight-pole Bessel filter (Frequency Device, Havervill, Mass.) and captured onto a hard disk at a sampling rate of 50 Hz. […] Patch-clamp electrodes were made from Corning 7052 glass capillaries (Warner Instrument, Hammed, Conn.). The pipette resistance was usually 3-5 M.OMEGA., and the seal resistance was >20 G.OMEGA.. The pipette solution contained (in mM) 140 N-methyl-D-glucamine chloride (NMDG-C1), 2 MgCl2, 5Ca Cl2, and 10 HEPES (pH 7.4 with NMDG). The superfusion solution contained (in mM) 150 […], 2 MgCl2, 1 EGTA, 5 glucose, and 5 HEPES (pH 7.4 with NaOH). In excised inside-out patch experiments, the bath solution contained (in mM) 130 MNDG-Cl, 10 EGTA, 10 HEPES, 20 tetraethylammonium chloride, 8 Tris, and 2 MgCl2 (pH 7.4 with NMDG). Pipette potential was held at 50 mV relative to the bath. Downward deflections represent channel opening.
(§3) Channels were first activated in cell-attached patches with forskolin plus calyculin A, a membrane-permeant phosphatase inhibitor [Suganuma et al., 1991]. Patches were then excised into an inside-out configuration.

Row | Compound | channel open time [milliseconds]
15 | Nc1ncnc2c1ncn2[C@@H]1O[C@H](COP(=O)(O)OP(=O)(O)OP(=O)(O)O)[C@@H](O)[C@H]1O [ATP, reference compound] | 302±2

Biological target: T1, ΔF508-CFTR
Assay: Patch clamp, cell-attached patches, macroscopic current, NIH/3T3-ΔF508 cells
Conditions: 200 μM CPT-cAMP after 10 μM forskolin
Method: FIGS. 3A and B show recordings of the potentiation of wild-type (wt) and ΔF508-CFTR channel activity by genistein. Channels in cell-attached patches from NIH/3T3-CFTR (FIG. 3A) and NIH/3T3-ΔF508cells (FIG. 3B), were stimulated as indicated with 10 μM forskolin and 50μ genestein.
Cell culture: NIH/3T3-CFTR, NIH/3T3-ΔF508, and NIH/3T3 mock cells (generous gifts from Dr. Richard Mulligan of Children's Hospital and Medical Center, Harvard Medical School) were grown as described [Bradbury et al., 1992] at 37° C. and 5% CO2 in Dulbecco's modified Eagle's medium-H21 supplemented with 10% new-born calf serum, 4 mM glutamine, 25 mM glucose, 100 μg/ml penicillin, 100 μg/ml streptomycin, and 50 μg/ml gentamicin. Cells were maintained in T75 flasks, passaged at 90-95% confluency, and split one to four. For measurements of I^- efflux and in vivo phosphorylation, cells were seeded onto 35-mm dishes at […]. For patch-clamp experiments, cells were grown on coverglass chips in 35-mm culture dishes. Media were replaced 24 hours after plating and thereafter every 48 hours. In all cases, media were changed on the day before I^- efflux studies, NIH/3T3-ΔF508 cells were transferred to 27° C. three days before use, and 1 day prior to study, media were supplemented with 5 mM butyrate. For patch-clamp studies, where a constant level of functional ΔF508-CFTR was not essential, NIH/3T3-ΔF508 cells were cultured at 27° C. for 2-6 days before use. Calu-3 cells were grown and maintained as described by Hunter [1995].
as §2, with “In excised inside-out patch experiments, the bath solution contained (in mM) 130 MNDG-Cl, 10 EGTA, 10 HEPES, 20 tetraethylammonium chloride, 8 Tris, and 2 MgCl2 (pH 7.4 with NMDG). Pipette potential was held at 50 mV relative to the bath. Downward deflections represent channel opening.” left out
Statistics: Mean currents and variance were estimated with Igor (Wavemetrics, Lake Oswego, Oreg.). […] Po was calculated from patches containing a single channel by dividing the open channel current amplitude with the mean-current amplitude. […] Calculated values are presented as means±SE. […]

Row | Compound | effect on mean-current amplitude of forskolin-stimulated cells
16 | Nc1ncnc2c1nc(Sc1ccc(Cl)cc1)n2[C@@H]1O[C@@H]2COP(=O)(O)O[C@H]2[C@H]1O [CPT-cAMP, 8-(4-chlorophenylthio)-cAMP, reference compound] | failed to increase the mean-current amplitude

Biological target: wt-CFTR (Homo sapiens, UniProt P13569)
Assay: not given
Conditions: ATP without genistein; stated for both wt- and ΔF508-CFTR
Method: as §1, §2, §3

wt-CFTR, sequence (P13569 whole entry): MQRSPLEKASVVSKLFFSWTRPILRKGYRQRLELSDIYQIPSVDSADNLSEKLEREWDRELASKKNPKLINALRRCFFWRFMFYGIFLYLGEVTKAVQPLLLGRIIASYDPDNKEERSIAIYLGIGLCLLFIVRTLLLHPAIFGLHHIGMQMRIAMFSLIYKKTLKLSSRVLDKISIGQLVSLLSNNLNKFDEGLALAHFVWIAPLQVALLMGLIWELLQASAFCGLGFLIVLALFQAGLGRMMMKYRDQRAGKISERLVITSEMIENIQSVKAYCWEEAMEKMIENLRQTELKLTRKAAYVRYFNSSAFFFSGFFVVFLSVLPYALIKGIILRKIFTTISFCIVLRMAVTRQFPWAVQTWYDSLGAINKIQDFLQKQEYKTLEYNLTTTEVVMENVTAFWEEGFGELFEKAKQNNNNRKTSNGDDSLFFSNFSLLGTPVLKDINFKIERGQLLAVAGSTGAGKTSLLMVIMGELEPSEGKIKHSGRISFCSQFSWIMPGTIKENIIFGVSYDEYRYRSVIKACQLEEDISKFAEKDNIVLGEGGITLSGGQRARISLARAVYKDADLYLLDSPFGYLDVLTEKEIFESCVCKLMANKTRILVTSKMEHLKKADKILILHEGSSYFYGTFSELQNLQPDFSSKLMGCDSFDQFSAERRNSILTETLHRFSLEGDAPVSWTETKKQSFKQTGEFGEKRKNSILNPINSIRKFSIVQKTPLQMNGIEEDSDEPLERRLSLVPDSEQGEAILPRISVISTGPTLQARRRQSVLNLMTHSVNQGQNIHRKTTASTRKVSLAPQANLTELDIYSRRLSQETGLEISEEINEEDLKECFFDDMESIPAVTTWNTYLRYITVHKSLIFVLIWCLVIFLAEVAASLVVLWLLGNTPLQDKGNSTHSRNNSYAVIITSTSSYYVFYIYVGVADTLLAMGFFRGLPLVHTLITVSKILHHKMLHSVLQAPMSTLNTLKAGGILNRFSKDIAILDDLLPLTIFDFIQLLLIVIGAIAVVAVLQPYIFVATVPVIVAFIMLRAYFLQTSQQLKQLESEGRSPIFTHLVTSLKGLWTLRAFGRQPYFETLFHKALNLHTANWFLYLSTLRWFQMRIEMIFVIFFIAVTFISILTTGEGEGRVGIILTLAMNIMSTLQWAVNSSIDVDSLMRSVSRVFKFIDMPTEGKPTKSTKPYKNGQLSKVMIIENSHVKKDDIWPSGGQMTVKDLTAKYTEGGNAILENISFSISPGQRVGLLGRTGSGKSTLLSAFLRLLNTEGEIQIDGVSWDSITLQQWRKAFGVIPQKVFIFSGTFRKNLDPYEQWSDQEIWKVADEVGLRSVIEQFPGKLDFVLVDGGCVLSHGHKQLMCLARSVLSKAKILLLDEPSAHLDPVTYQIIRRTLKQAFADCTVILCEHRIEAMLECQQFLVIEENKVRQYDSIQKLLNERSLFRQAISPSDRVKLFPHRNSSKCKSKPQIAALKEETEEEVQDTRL

Row | Compound | channel open time [milliseconds]
17 | Nc1ncnc2c1ncn2[C@@H]1O[C@H](COP(=O)(O)OP(=O)(O)OP(=O)(O)O)[C@@H](O)[C@H]1O [ATP, reference compound] | 302±2

Tested on: CFTR
Assay: Other protein tyrosine kinase inhibitors, enhancement of CFTR activity
Type: cell-based
Conditions: methodology of Example 1
Method: Based on the results of Example 1 other protein tyrosine kinase inhibitors were tested using the methodology of Example 1.

Row | Compound | enhancement of CFTR activity
18 | O=c1c(O)c(-c2ccc(O)c(O)c2)oc2cc(O)cc(O)c12 [quercetin] | failed to enhance CFTR activity

From patent US5948814A, “Genistein for the treatment of cystic fibrosis” (priority 1998, dated 1999)
